Experimental data reported in the OligoGym collection.
Oligonucleotides are given in HELM: sugar(base)linkage, 5' to 3'; d 2'-deoxyribose, r ribose, m 2'-O-methylribose, p phosphate. ss, as = sense and antisense strand

Biological target: TMEM63B
Assay: reporter assay of Huesken 2005
Conditions: siRNA
Further: test concentration or dose not given here.

Substance	normalised inhibition (eCFP-eYFP dual reporter)
RNA1{r(G)p.r(C)p.r(G)p.r(A)p.r(A)p.r(A)p.r(U)p.r(A)p.r(C)p.r(A)p.r(U)p.r(C)p.r(G)p.r(C)p.r(U)p.r(C)p.r(A)p.r(G)p.r(G)p.d(T)p.d(T)}|RNA2{r(C)p.r(C)p.r(U)p.r(G)p.r(A)p.r(G)p.r(C)p.r(G)p.r(A)p.r(U)p.r(G)p.r(U)p.r(A)p.r(U)p.r(U)p.r(U)p.r(C)p.r(G)p.r(C)p.d(A)p.d(G)}$$$RNA1{StrandType:ss}|RNA2{StrandType:as}$	40.2%
RNA1{r(G)p.r(C)p.r(G)p.r(U)p.r(C)p.r(U)p.r(U)p.r(C)p.r(A)p.r(C)p.r(G)p.r(G)p.r(U)p.r(G)p.r(G)p.r(U)p.r(C)p.r(A)p.r(U)p.d(T)p.d(T)}|RNA2{r(A)p.r(U)p.r(G)p.r(A)p.r(C)p.r(C)p.r(A)p.r(C)p.r(C)p.r(G)p.r(U)p.r(G)p.r(A)p.r(A)p.r(G)p.r(A)p.r(C)p.r(G)p.r(C)p.d(A)p.d(C)}$$$RNA1{StrandType:ss}|RNA2{StrandType:as}$	75.9%
RNA1{r(G)p.r(C)p.r(U)p.r(A)p.r(U)p.r(G)p.r(C)p.r(A)p.r(C)p.r(G)p.r(G)p.r(G)p.r(G)p.r(A)p.r(C)p.r(A)p.r(G)p.r(C)p.r(C)p.d(T)p.d(T)}|RNA2{r(G)p.r(G)p.r(C)p.r(U)p.r(G)p.r(U)p.r(C)p.r(C)p.r(C)p.r(C)p.r(G)p.r(U)p.r(G)p.r(C)p.r(A)p.r(U)p.r(A)p.r(G)p.r(C)p.d(T)p.d(G)}$$$RNA1{StrandType:ss}|RNA2{StrandType:as}$	73.2%
RNA1{r(G)p.r(C)p.r(U)p.r(G)p.r(C)p.r(U)p.r(G)p.r(A)p.r(A)p.r(G)p.r(C)p.r(A)p.r(C)p.r(C)p.r(U)p.r(G)p.r(G)p.r(U)p.r(A)p.d(T)p.d(T)}|RNA2{r(U)p.r(A)p.r(C)p.r(C)p.r(A)p.r(G)p.r(G)p.r(U)p.r(G)p.r(C)p.r(U)p.r(U)p.r(C)p.r(A)p.r(G)p.r(C)p.r(A)p.r(G)p.r(C)p.d(A)p.d(T)}$$$RNA1{StrandType:ss}|RNA2{StrandType:as}$	82.4%
RNA1{r(G)p.r(C)p.r(U)p.r(U)p.r(U)p.r(G)p.r(G)p.r(G)p.r(A)p.r(G)p.r(A)p.r(A)p.r(C)p.r(C)p.r(A)p.r(C)p.r(C)p.r(A)p.r(U)p.d(T)p.d(T)}|RNA2{r(A)p.r(U)p.r(G)p.r(G)p.r(U)p.r(G)p.r(G)p.r(U)p.r(U)p.r(C)p.r(U)p.r(C)p.r(C)p.r(C)p.r(A)p.r(A)p.r(A)p.r(G)p.r(C)p.d(T)p.d(G)}$$$RNA1{StrandType:ss}|RNA2{StrandType:as}$	75.8%
RNA1{r(G)p.r(G)p.r(A)p.r(U)p.r(G)p.r(A)p.r(U)p.r(C)p.r(U)p.r(G)p.r(G)p.r(U)p.r(G)p.r(A)p.r(A)p.r(G)p.r(C)p.r(G)p.r(G)p.d(T)p.d(T)}|RNA2{r(C)p.r(C)p.r(G)p.r(C)p.r(U)p.r(U)p.r(C)p.r(A)p.r(C)p.r(C)p.r(A)p.r(G)p.r(A)p.r(U)p.r(C)p.r(A)p.r(U)p.r(C)p.r(C)p.d(T)p.d(C)}$$$RNA1{StrandType:ss}|RNA2{StrandType:as}$	63.9%
RNA1{r(G)p.r(G)p.r(A)p.r(U)p.r(G)p.r(A)p.r(U)p.r(G)p.r(A)p.r(G)p.r(A)p.r(U)p.r(C)p.r(C)p.r(G)p.r(G)p.r(G)p.r(A)p.r(C)p.d(T)p.d(T)}|RNA2{r(G)p.r(U)p.r(C)p.r(C)p.r(C)p.r(G)p.r(G)p.r(A)p.r(U)p.r(C)p.r(U)p.r(C)p.r(A)p.r(U)p.r(C)p.r(A)p.r(U)p.r(C)p.r(C)p.d(T)p.d(T)}$$$RNA1{StrandType:ss}|RNA2{StrandType:as}$	89.3%
RNA1{r(G)p.r(G)p.r(C)p.r(C)p.r(A)p.r(A)p.r(G)p.r(C)p.r(U)p.r(G)p.r(G)p.r(A)p.r(C)p.r(A)p.r(A)p.r(G)p.r(A)p.r(A)p.r(G)p.d(T)p.d(T)}|RNA2{r(C)p.r(U)p.r(U)p.r(C)p.r(U)p.r(U)p.r(G)p.r(U)p.r(C)p.r(C)p.r(A)p.r(G)p.r(C)p.r(U)p.r(U)p.r(G)p.r(G)p.r(C)p.r(C)p.d(G)p.d(G)}$$$RNA1{StrandType:ss}|RNA2{StrandType:as}$	65%
